Experiment [1] deals with TLR2 induced IL-6 in peripheral blood mononuclear cells (PBMCs). The experiment in a line: PBMC TLR2 Induced IL-6 Assay. The following applies: human PBMCs, 10 μg/ml lipoteichoic acid for 5 hours, IL-6 by ELISA, value without asterisk, read-out: Cell IC50. Format: cell-based, human. An outline of the steps: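 IL-6 ELISA of supernatants after a 5 h challenge with the TLR2 agonist lipoteichoic acid (10 μg/ml). Before stimulation, human PBMCs (250000 cells/well; RPMI, 10% heat-inactivated FCS) received compound for 30 min at 37° C. Values given as IC50 or EC50.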

Experiment [2] concerns the target IRAK4 (Homo sapiens (Human), UniProt Q9NWZ3). The experiment in a line: IRAK4 Inhibition Assay. Type of experiment: biochemical. As to conditions: ATP 500 μM; IRAK4 0.6 nM; 60 min at room temperature. As for the experimental part:
The assays were performed in U-bottom 384-well plates. […] The reaction was initiated by the combination of IRAK4 with substrates and test compounds. The reaction was incubated at room temperature for 60 min. and terminated by adding 45 μL of 35 mM EDTA to each sample. The reaction mixture was analyzed on the Caliper LABCHIP® 3000 (Caliper, Hopkinton, Mass.) by electrophoretic separation of the fluorescent substrate and phosphorylated product.

Read-outs that look alike come from different tables or passages of the source.

IRAK4, sequence (Q9NWZ3 whole entry, species assumed): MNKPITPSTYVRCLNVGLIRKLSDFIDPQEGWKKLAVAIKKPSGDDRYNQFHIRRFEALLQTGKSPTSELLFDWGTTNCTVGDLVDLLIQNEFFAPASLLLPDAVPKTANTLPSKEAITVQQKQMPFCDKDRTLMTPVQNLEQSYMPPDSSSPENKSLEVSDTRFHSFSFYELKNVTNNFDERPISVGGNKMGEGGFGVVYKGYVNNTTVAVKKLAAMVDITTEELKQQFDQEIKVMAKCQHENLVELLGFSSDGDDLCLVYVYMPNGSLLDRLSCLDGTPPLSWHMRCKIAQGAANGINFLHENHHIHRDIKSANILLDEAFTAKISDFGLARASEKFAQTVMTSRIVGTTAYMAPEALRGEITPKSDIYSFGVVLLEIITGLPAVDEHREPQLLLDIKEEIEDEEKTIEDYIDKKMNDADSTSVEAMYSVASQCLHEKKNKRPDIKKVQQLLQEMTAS

On to `CC(C)(O)[C@H](F)CNC(=O)c1cnc(Nc2ccn3nccc3n2)cc1NC1CCC(F)C1` (stereo partly drawn) [Example 247], for which the half-maximal inhibitory concentration (IC50) – broadly, the point on the concentration scale where inhibition reaches its midpoint – in experiment [1] was 170 nM; in experiment [2], 2.7 nM.
In the same order, the values of `CC(C)(O)[C@H](F)CNC(=O)c1cnc(Nc2ccn3nccc3n2)cc1NC1CCC(F)C1` (stereo partly drawn) [Example 248] are 176 nM and 3.1 nM.
`CC(C)(O)[C@H](F)CNC(=O)c1cnc(Nc2ccn3ncc(F)c3n2)cc1NC1CC1` [Example 251]: the IC50 worked out at 369 nM in experiment [1] (Homo sapiens, PBMC, 5 h) and 3.2 nM in experiment [2].
In the same order, the values of `CC(C)(O)[C@H](F)CNC(=O)c1cnc(Nc2ccn3ncc(F)c3n2)cc1NC1CCC1` [Example 252] are 173 nM and 4.2 nM.
Taken in the same sequence, the figures for `CC(C)(F)CNc1cc(Nc2ccn3nccc3n2)ncc1C(=O)NC[C@@H](F)C(C)(C)O` [Example 253] were 308 nM and 5.2 nM.
In the case of `CC(C)(O)[C@H](F)CNC(=O)c1cnc(Nc2ccn3nccc3n2)cc1NC1CCC(F)C1` (stereo partly drawn) [Example 254], the IC50 came out at 131 nM in experiment [1] and 2.5 nM in experiment [2].
Consider `CC(C)(O)[C@H](F)CNC(=O)c1cnc(Nc2ccn3nccc3n2)cc1NC1CCC(F)C1` (stereo partly drawn) [Example 255], for which the half-inhibitory concentration (IC50) stood at 86 nM in experiment [1] and 2.4 nM in experiment [2].
Consider `CC(C)(O)[C@H](F)CNC(=O)c1cnc(Nc2ccn3nccc3n2)cc1NC1COCCC1F` (stereo partly drawn) [Example 256], for which the IC50 in experiment [1] (Homo sapiens, PBMC, 5 h) was 587 nM; in experiment [2], 8.8 nM.
Taken in the same sequence, the figures for `CC(C)(F)CNc1cc(Nc2ccn3ncc(F)c3n2)ncc1C(=O)NC[C@@H](F)C(C)(C)O` [Example 257] were 321 nM and 3.1 nM.
In the same order, the values of `CC(C)Nc1cc(Nc2ccn3ncc(C#N)c3n2)ncc1C(=O)NC[C@@H](F)C(C)(C)O` [Example 261] are 126 nM and 3.6 nM.
In the case of `CC(C)Nc1cc(Nc2ccn3ncc(Cl)c3n2)ncc1C(=O)NC[C@@H](F)C(C)(C)O` [Example 262], the half-maximal inhibitory concentration (IC50) came out at 141 nM in experiment [1] and 2.9 nM in experiment [2].
Turning to `CC(C)(O)[C@H](F)CNC(=O)c1cnc(Nc2ccn3nccc3n2)cc1NC1CC(F)C1` (stereo partly drawn) [Example 263], the IC50 in experiment [1] (Homo sapiens, PBMC, 5 h) was found to be 190 nM; in experiment [2] it was 4.2 nM.
Turning to `CC(C)(F)CNc1cc(Nc2ccn3ncc(Cl)c3n2)ncc1C(=O)NC[C@@H](F)C(C)(C)O` [Example 264], the half-inhibitory concentration (IC50) in experiment [1] (Homo sapiens, PBMC, 5 h) was determined as 384 nM; in experiment [2] it was 4.6 nM.
As for `CC(C)(O)[C@H](F)CNC(=O)c1cnc(Nc2ccn3ncc(F)c3n2)cc1NC1CC(F)(F)C1` [Example 265], the IC50 in experiment [1] (Homo sapiens, PBMC, 5 h) is 217 nM; in experiment [2], 3.3 nM.
In the same order, the values of `Cc1cc2nc(Nc3cc(NC4CCC(F)C4)c(C(=O)NC[C@@H](F)C(C)(C)O)cn3)ccn2n1` (stereo partly drawn) [Example 267] are 468 nM and 7.4 nM.
In the case of `Cc1cc2nc(Nc3cc(NC4CCC(F)C4)c(C(=O)NC[C@@H](F)C(C)(C)O)cn3)ccn2n1` (stereo partly drawn) [Example 268], the IC50 is 376 nM in experiment [1] and 6.1 nM in experiment [2].
In the case of `CC(C)(O)[C@H](F)CNC(=O)c1cnc(Nc2ccc3nccn3n2)cc1NC1CCC1` [Example 272], the IC50 in experiment [1] (Homo sapiens, PBMC, 5 h) was determined as 175 nM; in experiment [2] it was 4.8 nM.
Regarding `CC(C)(O)[C@H](F)CNC(=O)c1cnc(Nc2ccc3nccn3n2)cc1NC1CCCC1F` (stereo partly drawn) [Example 273], the half-inhibitory concentration (IC50) in experiment [1] (Homo sapiens, PBMC, 5 h) is 764 nM; in experiment [2], 2.4 nM.
Turning to `CC(C)(O)[C@H](F)CNC(=O)c1cnc(Nc2ccc3nccn3n2)cc1NC1CCCC1F` (stereo partly drawn) [Example 274], the IC50 stood at 712 nM in experiment [1] and 2.8 nM in experiment [2].
Consider `CC(C)(C)CNc1cc(Nc2ccc3nccn3n2)ncc1C(=O)NC[C@@H](F)C(C)(C)O` [Example 275], for which the half-maximal inhibitory concentration (IC50) in experiment [1] (Homo sapiens, PBMC, 5 h) worked out at 335 nM; in experiment [2], 3.1 nM.
In the case of `Cc1cnc2ccc(Nc3cc(NC(C)C)c(C(=O)NC[C@@H](F)C(C)(C)O)cn3)nn12` [Example 277], the IC50 in experiment [1] (Homo sapiens, PBMC, 5 h) worked out at 180 nM; in experiment [2], 3.6 nM.
For `Cc1cn2nc(Nc3cc(NC4CC4)c(C(=O)NC[C@@H](F)C(C)(C)O)cn3)ccc2n1` [Example 278], the IC50 in experiment [1] (Homo sapiens, PBMC, 5 h) was found to be 618 nM; in experiment [2] it was 10.8 nM.
In the case of `CC(C)(O)[C@H](F)CNC(=O)c1cnc(Nc2ccc3nccn3n2)cc1NC1CCOCC1` [Example 279], the 50% inhibitory concentration (IC50) in experiment [1] (Homo sapiens, PBMC, 5 h) was found to be 292 nM; in experiment [2], 4 nM.
As for `CC(C)(O)[C@H](F)CNC(=O)c1cnc(Nc2ccc3nccn3n2)cc1NC1CCC(F)C1` (stereo partly drawn) [Example 280], the figures for the half-maximal inhibitory concentration (IC50) in experiment [1] and in experiment [2] were 127 nM and 2.7 nM, respectively.
In the same order, the values of `CC(C)(O)[C@H](F)CNC(=O)c1cnc(Nc2ccc3nccn3n2)cc1NC1CCC(F)C1` (stereo partly drawn) [Example 281] are 354 nM and 1.2 nM.
On to `O=C(NC1CCC(O)CC1)c1cnc(Nc2ccc3nccn3n2)cc1NC1CCC1` (stereo not drawn) [Example 282], for which the IC50 was found to be 458 nM in experiment [1] (Homo sapiens, PBMC, 5 h) and 11.4 nM in experiment [2].
For `CC(C)(O)C(F)(F)CNC(=O)c1cnc(Nc2ccc3nccn3n2)cc1NC1CC1` [Example 283], the half-inhibitory concentration (IC50) in experiment [1] (Homo sapiens, PBMC, 5 h) was 417 nM; in experiment [2] it was 9.6 nM.
Taken in the same sequence, the figures for `CC(C)(O)[C@H](F)CNC(=O)c1cnc(Nc2ccc3nccn3n2)cc1NC1CCOCC1F` (stereo partly drawn) [Example 285] were 512 nM and 7.1 nM.
In the same order, the values of `CC(C)Nc1cc(Nc2ccn3nccc3c2)ncc1C(=O)NC[C@@H](F)C(C)(C)O` [Example 286] are 415 nM and 5.2 nM.
With `CC(C)(O)[C@H](F)CNC(=O)c1cnc(Nc2ccn3nccc3c2)cc1NC1CCC(F)C1` (stereo partly drawn) [Example 287], the IC50 in experiment [1] (Homo sapiens, PBMC, 5 h) came out at 674 nM; in experiment [2], 6.2 nM.
In the same order, the values of `CC(C)Nc1cc(Nc2ccn3ncc(F)c3c2)ncc1C(=O)NC[C@@H](F)C(C)(C)O` [Example 288] are 134 nM and 1 nM.
Turning to `CC(C)CNc1cc(Nc2ccn3nccc3c2)ncc1C(=O)NC[C@@H](F)C(C)(C)O` [Example 289], the IC50 is 502 nM in experiment [1] (Homo sapiens, PBMC, 5 h) and 6.1 nM in experiment [2].
For `CC(C)(O)[C@H](F)CNC(=O)c1cnc(Nc2ccn3nccc3c2)cc1NCC1CC1` [Example 290], the IC50 was 607 nM in experiment [1] (Homo sapiens, PBMC, 5 h) and 11.4 nM in experiment [2].
In the same order, the values of `CC(C)(C)Nc1cc(Nc2ccn3nccc3c2)ncc1C(=O)NC[C@@H](F)C(C)(C)O` [Example 291] are 283 nM and 7 nM.
Taken in the same sequence, the figures for `CC(C)(O)[C@H](F)CNC(=O)c1cnc(Nc2ccn3nccc3c2)cc1NCCC1CC1` [Example 292] were 427 nM and 7 nM.
In the same order, the values of `CC(C)(O)[C@H](F)CNC(=O)c1cnc(Nc2ccn3nccc3c2)cc1NC1CCC(F)(F)C1` (stereo partly drawn) [Example 293] are 310 nM and 1.8 nM.
In the case of `CC(C)(F)CNc1cc(Nc2ccn3nccc3c2)ncc1C(=O)NC[C@@H](F)C(C)(C)O` [Example 294], the IC50 in experiment [1] (Homo sapiens, PBMC, 5 h) is 416 nM; in experiment [2], 4.7 nM.
In the same order, the values of `CC(C)Nc1cc(Nc2ccn3ncc(Cl)c3c2)ncc1C(=O)NC[C@@H](F)C(C)(C)O` [Example 295] are 446 nM and 4.8 nM.
Taken in the same sequence, the figures for `CC(C)(O)[C@H](F)CNC(=O)c1cnc(Nc2ccn3nccc3c2)cc1NC1CC(F)C1` (stereo partly drawn) [Example 296] were 384 nM and 7.1 nM.
Taken in the same sequence, the figures for `CC(C)(O)[C@H](F)CNC(=O)c1cnc(Nc2ccn3nccc3c2)cc1NC1CCCC1(F)F` (stereo partly drawn) [Example 297] were 535 nM and 5.7 nM.
Turning to `CC(C)(O)[C@H](F)CNC(=O)c1cnc(Nc2ccn3nccc3c2)cc1NC1CCOCC1F` (stereo partly drawn) [Example 298], the IC50 in experiment [1] (Homo sapiens, PBMC, 5 h) was determined as 596 nM; in experiment [2] it was 7.9 nM.
For `CC(C)(O)[C@H](F)CNC(=O)c1cnc(Nc2ccn3nccc3c2)cc1NC1CCC(F)(F)C1` (stereo partly drawn) [Example 299], the IC50 in experiment [1] stood at 420 nM; in experiment [2], 1.7 nM.
Turning to `Cc1nn2ccc(Nc3cc(NCC(C)(C)F)c(C(=O)NC[C@@H](F)C(C)(C)O)cn3)cc2c1F` [Example 300], the half-maximal inhibitory concentration (IC50) in experiment [1] (Homo sapiens, PBMC, 5 h) is 294 nM; in experiment [2] it was 4.4 nM.
Take `CC(C)(F)CNc1cc(Nc2ccn3ncc(F)c3c2)ncc1C(=O)NC[C@@H](F)C(C)(C)O` [Example 301]: the half-inhibitory concentration (IC50) in experiment [1] (Homo sapiens, PBMC, 5 h) came out at 190 nM; in experiment [2], 3.1 nM.
`CCC(C)Nc1cc(Nc2ccn3nccc3c2)ncc1C(=O)NC[C@@H](F)C(C)(C)O` (stereo partly drawn) [Example 302]: the IC50 in experiment [1] (Homo sapiens, PBMC, 5 h) was found to be 426 nM; in experiment [2], 5.6 nM.
In the same order, the values of `CC(C)(O)[C@H](F)CNC(=O)c1cnc(Nc2ccc3ncsc3n2)cc1NC1CC1` [Example 308] are 144 nM and 0.5 nM.
In the same order, the values of `CC(C)Nc1cc(Nc2ccc3ncsc3n2)ncc1C(=O)NC[C@@H](F)C(C)(C)O` [Example 309] are 61 nM and 1.9 nM.
As for `CC(C)(O)[C@H](F)CNC(=O)c1cnc(Nc2ccc3ncsc3n2)cc1NCC(F)(F)F` [Example 310], the IC50 in experiment [1] (Homo sapiens, PBMC, 5 h) came out at 173 nM; in experiment [2], 1.9 nM.
Taken in the same sequence, the figures for `CCNc1cc(Nc2ccc3ncsc3n2)ncc1C(=O)NC[C@@H](F)C(C)(C)O` [Example 311] were 81 nM and 2.4 nM.
In the same order, the values of `CC(C)(O)[C@H](F)CNC(=O)c1cnc(Nc2ccc3ncsc3n2)cc1NC1CCOCC1` [Example 312] are 29 nM and 1 nM.
In the case of `CC(C)Nc1cc(Nc2ccc3ncsc3n2)ncc1C(=O)NCC(F)(F)C(C)(C)O` [Example 313], the IC50 is 73 nM in experiment [1] (Homo sapiens, PBMC, 5 h) and 3.4 nM in experiment [2].

The values above are taken from patent US9546153B2, “Bicyclic heterocycle substituted pyridyl compounds useful as kinase modulators” (BRISTOL-MYERS SQUIBB COMPANY, priority 2012, dated 2017).
